Results from article PMC7038160, “Design, Synthesis, and Evaluation of Acetylcholinesterase and Butyrylcholinesterase Dual-Target Inhibitors against Alzheimer’s Diseases” (Molecules, 2020).
Entries after “also recorded” stand apart in the source; their conditions may differ.

Legend:
[1] = molecular target: T1, horse serum BChE (eqBChE) (Equus caballus, UniProt P81908); assay: biochemical; format: biochemical; details: eqBChE from horse serum; for IC50: mean ± SEM of triplicate independent experiments; for BChE IR (inhibitory rate): compounds under 100 μM
T1 construct: horse serum BChE (eqBChE, Sigma-Aldrich, Munich, Germany); purchased Sigma-Aldrich; host or cells: horse serum
Description: (§1) According to the method described by Ellman, the data were expressed by IC50 values.
(§2) The inhibitory activity of the target compound against AChE (from Electrophorus electricus (eeAChE), Sigma-Aldrich, Munich, Germany) and horse serum BChE (eqBChE, Sigma-Aldrich, Munich, Germany) were measured by Ellman’s method. In 96-well plates, a mixture of phosphate buffer (0.1 M, pH 8.0, […]), 5,5′-dithiobis-2-nitrobenzoic acid (DTNB, 60 μL), acetylcholinesterase or butyrylcholinesterase (20 μL, 5 IU/mL) and different concentrations of the compounds solution (30 μL) was pre-incubated for 5 min and then substrates (acetylthiocholine iodide or butyrylthiocholine iodide, 20 μL) were added.
(§3) The measurement of each concentration for each compound was detected in triplicate. GraphPad Prism 6.0 (GraphPad Software, Inc., La Jolla, CA, USA) was used for data processing. The inhibition curve was fitted by plotting the logarithm of the concentration of the tested compounds with the percentage of enzyme activity (reference to 100%). The (IC50) value was calculated according to the inhibition curve and the data were shown in the layout of mean ± SEM by GraphPad Prism 6.0.

[2] = molecular target: T2, AChE from Electrophorus electricus (eeAChE) (Electrophorus electricus, UniProt O42275); assay: biochemical; format: biochemical; details: for SI (selectivity index = AChE IC50/BChE IC50): eeAChE IC50 / eqBChE IC50; for IC50 / AChE IR (inhibitory rate): eeAChE from electric eel; for IC50: mean ± SEM of triplicate independent experiments; for AChE IR (inhibitory rate): compounds under 100 μM
T2 construct: purchased Sigma-Aldrich
Description: as §1, §2, §3

PC12 cells = assay: Cytotoxicity in PC12 cells (MTT assay); format: cell-based; details: 10, 20, 30 and 50 μM, 24 h
Description: We focused on the cytotoxicity of the synthetic compounds. The reason for using PC12 is that our compounds act on the central nervous system, so we need to find out whether the compound has a toxic effect on normal nerve cells. Compounds 6b, 6c, 6d, 10s, 8i, and 10v were selected as representative compounds to assess their potential cytotoxic effects.
Pheochromocytoma-derived cell line (PC12 cells) were grown in Dulbecco’s Modified Eagle Medium (DMEM) supplemented with 10% FBS at 37 °C in a humidified atmosphere containing 5% CO2. To carry out the experiment, cells (6 × 10^3 cells/well) were seeded in 96-well plate in complete medium. […]

eeAChE = molecular target: T3, eeAChE (Electrophorus electricus, UniProt O42275); assay: Kinetics of AChE inhibition (Lineweaver–Burk plots); format: biochemical, Electrophorus electricus (electric eel); details: substrate 90-904 μM
T3 construct: purchased Sigma-Aldrich
Description: (§4) To determine the kinetic types of AChE and BChE inhibition, compounds 8i and 10s were selected for kinetic studies. In each case, the kinetic types of enzyme inhibition were obtained by the modified Ellman’s method and the Lineweaver–Burk secondary plots. […] According to the result of molecular docking study.
(§5) Kinetic studies were performed in the same manner as the determination of ChEs inhibition, with substrate (ATC/BTC) concentrations of 90, 150, 226, 452 and 904 μM. The concentration of compound 8i was set to 0, 0.25, 0.5, 0.75, 1 μM, and the concentration of compound 10s was set to 1, 2.5, 5, 7.5, 10 μM. The enzymatic reaction was extended to 7 min for eeAChE and eqBChE before the determination of the absorption. The Vmax and Km values of Michaelis-Menten kinetics were calculated by nonlinear regression from the substrate-velocity curves using GraphPad Prism 6.0. Linear regression was used to fit the Lineweaver–Burk plot.

eqBChE [3] = molecular target: T4, eqBChE (Equus caballus, UniProt P81908); assay: Kinetics of BChE inhibition (Lineweaver–Burk plots); format: biochemical; details: substrate 90-904 μM
T4 construct: horse serum BChE (eqBChE, Sigma-Aldrich, Munich, Germany); purchased Sigma-Aldrich; host or cells: horse serum
Description: as §4, §5

eqBChE [4] = molecular target: T4, eqBChE; parameters: method as in earlier work; details: lead compound from previous virtual screening; cited from earlier work

T2 sequence (O42275 24-633): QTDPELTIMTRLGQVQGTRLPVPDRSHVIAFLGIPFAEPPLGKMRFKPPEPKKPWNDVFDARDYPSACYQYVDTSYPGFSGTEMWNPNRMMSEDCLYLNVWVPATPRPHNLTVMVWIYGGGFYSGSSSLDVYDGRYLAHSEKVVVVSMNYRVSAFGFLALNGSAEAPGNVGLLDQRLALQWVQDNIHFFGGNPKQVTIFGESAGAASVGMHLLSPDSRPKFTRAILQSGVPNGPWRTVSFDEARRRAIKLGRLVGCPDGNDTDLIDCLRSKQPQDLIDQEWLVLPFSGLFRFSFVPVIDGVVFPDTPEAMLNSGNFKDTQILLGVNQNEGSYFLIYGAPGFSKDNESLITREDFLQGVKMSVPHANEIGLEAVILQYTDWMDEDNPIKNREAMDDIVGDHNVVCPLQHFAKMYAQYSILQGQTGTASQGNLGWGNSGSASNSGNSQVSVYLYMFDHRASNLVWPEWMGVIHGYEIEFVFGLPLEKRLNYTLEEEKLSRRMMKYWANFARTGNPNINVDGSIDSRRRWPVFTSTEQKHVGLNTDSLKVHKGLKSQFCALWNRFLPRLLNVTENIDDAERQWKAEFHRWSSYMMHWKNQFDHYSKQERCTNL
T1 sequence (P81908 whole entry): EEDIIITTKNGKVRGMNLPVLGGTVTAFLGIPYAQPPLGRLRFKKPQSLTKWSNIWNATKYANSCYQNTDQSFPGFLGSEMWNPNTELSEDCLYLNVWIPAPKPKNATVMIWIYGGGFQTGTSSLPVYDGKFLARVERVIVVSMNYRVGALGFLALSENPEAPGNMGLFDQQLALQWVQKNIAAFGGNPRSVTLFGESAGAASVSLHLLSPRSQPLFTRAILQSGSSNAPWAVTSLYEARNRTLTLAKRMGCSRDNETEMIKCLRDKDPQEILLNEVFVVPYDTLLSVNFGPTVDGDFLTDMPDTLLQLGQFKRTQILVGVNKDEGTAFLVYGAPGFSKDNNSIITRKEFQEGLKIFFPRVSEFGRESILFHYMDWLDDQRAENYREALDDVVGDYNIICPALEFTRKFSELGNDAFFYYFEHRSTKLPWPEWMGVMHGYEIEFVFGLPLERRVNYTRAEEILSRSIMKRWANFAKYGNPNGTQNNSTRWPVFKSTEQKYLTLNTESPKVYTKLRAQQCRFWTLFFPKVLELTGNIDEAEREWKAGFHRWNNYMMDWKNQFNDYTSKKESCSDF
T4 sequence (P81908 whole entry): as above
T3 sequence (O42275 24-633): as the sequence (O42275 24-633) above

SMILES	IC50 [1] [µM]	SI (selectivity index = AChE IC50/BChE IC50) [2]	IC50 [2] [µM]	BChE IR (inhibitory rate) [1] [%]	AChE IR (inhibitory rate) [2]	further results
O=C(NCC1CCN(Cc2ccccc2)CC1)c1ccc2[nH]ccc2c1 [Compound 6a, N-((1-Benzylpiperidin-4-yl)methyl)-1H-indole-5-carboxamide]	31.4 ± 15.6	1.66	52.1 ± 30.2			
O=C(NCC1CCN(Cc2ccccc2Cl)CC1)c1ccc2[nH]ccc2c1 [Compound 6b, N-((1-(2-Chlorobenzyl)piperidin-4-yl)methyl)-1H-Indole-5-carboxamide]	9.56 ± 4.52	1.57	15 ± 6.17			
O=C(NCC1CCN(Cc2ccccc2)CC1)c1ccc2[nH]ncc2c1 [Compound 6c, N-((1-Benzylpiperidin-4-yl)methyl)-1H-indazole-5-carboxamide]	36.6 ± 17.5	0.25	9.06 ± 2.57			cytotoxicity compared with Tacrine (PC12 cells): less toxic than Tacrine
O=C(NCC1CCN(Cc2ccccc2)CC1)c1ccc2[nH]cnc2c1 [Compound 6d, N-((1-Benzylpiperidin-4-yl)methyl)-1H-benzo[d]imidazole-5-carboxamide]	2.15 ± 0.63	2.23	4.8 ± 0.68			cytotoxicity compared with Tacrine (PC12 cells): less toxic than Tacrine
O=C(NCC1CCN(Cc2ccc(C(F)(F)F)cc2)CC1)c1ccc2[nH]cnc2c1 [Compound 6e, N-((1-(4-(Trifluoromethyl)benzyl)piperidin-4-yl)methyl)-1H-benzo[d]imidazole-5-carboxamide]			48.5 ± 36.2	39.88		
COc1ccc(CN2CCC(CNC(=O)c3ccc4[nH]nnc4c3)CC2)cc1 [Compound 6f, N-((1-(4-Methoxybenzyl)piperidin-4-yl)methyl)-1H-benzo[d][1,2,3]triazole-5-carboxamide]				49.63	43.07%	
O=C(NCC1CCN(Cc2ccccc2Cl)CC1)c1ccc2[nH]nnc2c1 [Compound 6g, N-((1-(2-Chlorobenzyl)piperidin-4-yl)methyl)-1H-benzo[d][1,2,3]triazole-5-carboxamide]	49.9 ± 37.3	0.58	29.2 ± 16.4			
O=C(NCC1CCN(Cc2ccc(C(F)(F)F)cc2)CC1)c1ccc2[nH]nnc2c1 [Compound 6h, N-((1-(4-(Trifluoromethyl)benzyl)piperidin-4-yl)methyl)-1H-benzo[d][1,2,3]triazole-5-carboxamide]			40.2 ± 27.6	30.71		
O=C1Cc2cc(C(=O)NCC3CCN(Cc4ccccc4)CC3)ccc2N1 [Compound 8i, N-((1-Benzylpiperidin-4-yl)methyl)-2-Oxoindoline-5-carboxamide]	0.28 ± 0.1	1.39	0.39 ± 0.04			kinetic type of AChE inhibition (eeAChE): mixed-type inhibition; cytotoxicity compared with Tacrine (PC12 cells): lower than that of Tacrine; also recorded: less toxic than Tacrine; also recorded: lowest toxicity; kinetic type of BChE inhibition (eqBChE [3]): mixed-type inhibition
O=C1Cc2cc(C(=O)NCC3CCN(Cc4ccccc4Cl)CC3)ccc2N1 [Compound 8j, N-((1-(2-Chlorobenzyl)piperidin-4-yl)methyl)-2-Oxoindoline-5-carboxamide]				22.87	14.69%	
COc1ccc(CN2CCC(CNC(=O)c3ccc4c(c3)CC(=O)N4)CC2)cc1 [Compound 8k, N-((1-(4-Methoxybenzyl)piperidin-4-yl)methyl)-2-Oxoindoline-5-carboxamide]				22.26	no	
O=C1Cc2cc(C(=O)NCC3CCN(Cc4ccc(C(F)(F)F)cc4)CC3)ccc2N1 [Compound 8l, 2-Oxo-N-((1-(4-(trifluoromethyl)benzyl)piperidin-4-yl)methyl)indoline-5-carboxamide]			21.5 ± 9.37	35.20		
Cc1ccc(S(=O)(=O)NCC2CCN(Cc3ccccc3)CC2)cc1 [Compound 10s, N-((1-Benzylpiperidin-4-yl)methyl)-4-methylbenzenesulfonamide]	4.1 ± 3.74	1.03	4.24 ± 2.44			kinetic type of AChE inhibition (eeAChE): same inhibition type; cytotoxicity compared with Tacrine (PC12 cells): slightly more toxic than Tacrine; kinetic type of BChE inhibition (eqBChE [3]): same inhibition type
Cc1ccc(S(=O)(=O)NCC2CCN(Cc3ccccc3Cl)CC2)cc1 [Compound 10t, N-((1-(2-Chlorobenzyl)piperidin-4-yl)methyl)-4-methylbenzenesulfonamide]	2.01 ± 0.7	2.74	5.5 ± 2.56			
COc1ccc(CN2CCC(CNS(=O)(=O)c3ccc(C)cc3)CC2)cc1 [Compound 10u, N-((1-(4-Methoxybenzyl)piperidin-4-yl)methyl)-4-methylbenzenesulfonamide]				18.31	11.61%	
Cc1ccc(S(=O)(=O)NCC2CCN(Cc3ccc(C(F)(F)F)cc3)CC2)cc1 [Compound 10v, 4-Methyl-N-((1-(4-(trifluoromethyl)benzyl)piperidin-4-yl)methyl)benzenesulfonamide]	7.14 ± 5.27	1.01				
COc1ccc(CN2CCC(CNC(=O)c3ccc4[nH]ncc4c3)CC2)cc1 [Compound 11b]					48.57%	
COc1ccc(CN2CCC(CNC(=O)c3ccc4[nH]cnc4c3)CC2)cc1 [Compound 11d]					18.81%	
O=C(CC1CCN(CCc2ccccc2)CC1)Nc1ccc2[nH]ccc2c1 [Compound 16a, N-(1H-Indol-5-yl)-2-(1-phenethylpiperidin-4-yl)acetamide]				23.49	8.61%	
O=C(CC1CCN(CCc2ccccc2Cl)CC1)Nc1ccc2[nH]ccc2c1 [Compound 16b, 2-(1-(2-Chlorophenethyl)piperidin-4-yl)-N-(1H-indol-5-yl)acetamide]				31.21	8.95%	
O=C(CC1CCN(CCc2ccccc2)CC1)Nc1ccc2[nH]cnc2c1 [Compound 16c, N-(1H-Benzo[d]imidazol-5-yl)-2-(1-phenethylpiperidin-4-yl)acetamide]				30.59	no inhibitory activity and no	
O=C(CC1CCN(CCc2ccccc2Cl)CC1)Nc1ccc2[nH]cnc2c1 [Compound 16d, N-(1H-Benzo[d]imidazol-5-yl)-2-(1-(2-chlorophenethyl)piperidin-4-yl)acetamide]				38.04	8.55%	
Cn1c(=O)n(C)c2cc(S(=O)(=O)NCC3CCN(Cc4ccc(F)cc4)CC3)ccc21 [Compound G801-0274]						IC50 (eqBChE [4]): 0.03 µM
